According to ChEMBL document CHEMBL3885881, “DrugMatrix”:

Organism: Rattus norvegicus
Assay: DrugMatrix - Regimen: Daily Repeat
Type: toxicity, organism-based, Sprague-Dawley
Design: regimen Daily Repeat, gender Male, age 6-8 weeks
Settings: in vivo, po, route oral GAVAGE, […]; for ABSOLUTE BASOPHIL / ABSOLUTE EOSINOPHIL / ABSOLUTE LYMPHOCYTE / ABSOLUTE MONOCYTE / ABSOLUTE SEGMENTED NEUTROPHIL / BASOPHIL / EOSINOPHIL / ERYTHROCYTE COUNT / HEMATOCRIT / HEMOGLOBIN / LEUKOCYTE COUNT / LYMPHOCYTE / MEAN CORPUSCULAR HEMOGLOBIN / MEAN CORPUSCULAR HEMOGLOBIN CONCENTRATION / MEAN CORPUSCULAR VOLUME / MONOCYTE / NEUTROPHIL / NUCLEATED RED BLOOD CELLS / PLATELET COUNT: tissue Blood; for ALANINE AMINOTRANSFERASE / ALKALINE PHOSPHATASE / ASPARTATE AMINOTRANSFERASE / BLOOD UREA NITROGEN / CARBON DIOXIDE / CHLORIDE / CHOLESTEROL / CREATINE PHOSPHOKINASE / CREATININE / GLUCOSE / LACTATE DEHYDROGENASE / LIPASE / PHOSPHORUS / POTASSIUM / SODIUM / TOTAL BILIRUBIN / TOTAL PROTEIN / URIC ACID: tissue Plasma
[1] = 0 mg/kg, 72 h, dose level Control, time 3 day
[2] = 0 mg/kg, 120 h, dose level Control, time 5 day
[3] = 10 mg/kg, 72 h, dose level Low, time 3 day

**Q.** How did the “ABSOLUTE BASOPHIL” value [1] turn out when `CCOC(=O)C1=C(C)NC(C)=C(C(=O)OC)C1c1cccc([N+](=O)[O-])c1` (stereo not given) [NITRENDIPINE] was run?
**A.** 0 CELLS/uL

**Q.** What about the “ABSOLUTE EOSINOPHIL” value [1] of the same molecule?
**A.** 0 CELLS/uL

**Q.** And the “ABSOLUTE LYMPHOCYTE” value [1]?
**A.** 9244.83 CELLS/uL

**Q.** What about the “ABSOLUTE MONOCYTE” value [1] of the same molecule?
**A.** 102 CELLS/uL

**Q.** What about the “ABSOLUTE SEGMENTED NEUTROPHIL” value [1] of the same molecule?
**A.** 869.83 CELLS/uL

**Q.** What about the BASOPHIL [1] of the same molecule?
**A.** 0%

**Q.** And the EOSINOPHIL [1]?
**A.** 0%

**Q.** And the “ERYTHROCYTE COUNT” value [1]?
**A.** 5.43 x10E6/uL

**Q.** What about the HEMATOCRIT [1] of the same molecule?
**A.** 34.03%

**Q.** And the HEMOGLOBIN [1]?
**A.** 13.27 G/DL

**Q.** And the “LEUKOCYTE COUNT” value [1]?
**A.** 10.22 x10E3/uL

**Q.** And the LYMPHOCYTE [1]?
**A.** 90.33%

**Q.** And the “MEAN CORPUSCULAR HEMOGLOBIN” value [1]?
**A.** 24.48 pg

**Q.** And the “MEAN CORPUSCULAR HEMOGLOBIN CONCENTRATION” value [1]?
**A.** 39.03 G/DL

**Q.** And the “MEAN CORPUSCULAR VOLUME” value [1]?
**A.** 62.75 fL

**Q.** And the MONOCYTE [1]?
**A.** 1%

**Q.** And the NEUTROPHIL [1]?
**A.** 8.67%

**Q.** What about the “NUCLEATED RED BLOOD CELLS” value [1] of the same molecule?
**A.** 0.17 /100WBC

**Q.** And the “PLATELET COUNT” value [1]?
**A.** 989 x10E3/uL

**Q.** What about the “ALANINE AMINOTRANSFERASE” value [1] of the same molecule?
**A.** 77 u/L

**Q.** What about the “ALKALINE PHOSPHATASE” value [1] of the same molecule?
**A.** 464.83 u/L

**Q.** What about the “ASPARTATE AMINOTRANSFERASE” value [1] of the same molecule?
**A.** 89.83 u/L

**Q.** And the “BLOOD UREA NITROGEN” value [1]?
**A.** 12.17 mg/dL

**Q.** What about the “CARBON DIOXIDE” value [1] of the same molecule?
**A.** 34.17 mmol/L

**Q.** What about the CHLORIDE [1] of the same molecule?
**A.** 98.33 MEQ/L

**Q.** What about the CHOLESTEROL [1] of the same molecule?
**A.** 75.17 mg/dL

**Q.** And the “CREATINE PHOSPHOKINASE” value [1]?
**A.** 367.67 u/L

**Q.** And the CREATININE [1]?
**A.** 0.16 mg/dL

**Q.** And the GLUCOSE [1]?
**A.** 142.67 mg/dL

**Q.** What about the “LACTATE DEHYDROGENASE” value [1] of the same molecule?
**A.** 139.33 u/L

**Q.** What about the LIPASE [1] of the same molecule?
**A.** 9.5 u/L

**Q.** And the PHOSPHORUS [1]?
**A.** 10.85 mg/dL

**Q.** What about the POTASSIUM [1] of the same molecule?
**A.** 6.38 MEQ/L

**Q.** And the SODIUM [1]?
**A.** 143.2 MEQ/L

**Q.** What about the “TOTAL BILIRUBIN” value [1] of the same molecule?
**A.** 0.2 mg/dL

**Q.** What about the “TOTAL PROTEIN” value [1] of the same molecule?
**A.** 5.77 G/DL

**Q.** What about the “URIC ACID” value [1] of the same molecule?
**A.** 0.7 mg/dL

**Q.** What about the “ABSOLUTE BASOPHIL” value [2] of the same molecule?
**A.** 0 CELLS/uL

**Q.** What about the “ABSOLUTE EOSINOPHIL” value [2] of the same molecule?
**A.** 0 CELLS/uL

**Q.** And the “ABSOLUTE LYMPHOCYTE” value [2]?
**A.** 8295.33 CELLS/uL

**Q.** What about the “ABSOLUTE MONOCYTE” value [2] of the same molecule?
**A.** 84.67 CELLS/uL

**Q.** And the “ABSOLUTE SEGMENTED NEUTROPHIL” value [2]?
**A.** 970 CELLS/uL

**Q.** And the BASOPHIL [2]?
**A.** 0%

**Q.** What about the EOSINOPHIL [2] of the same molecule?
**A.** 0%

**Q.** And the “ERYTHROCYTE COUNT” value [2]?
**A.** 5.74 x10E6/uL

**Q.** What about the HEMATOCRIT [2] of the same molecule?
**A.** 36.22%

**Q.** And the HEMOGLOBIN [2]?
**A.** 13.85 G/DL

**Q.** What about the “LEUKOCYTE COUNT” value [2] of the same molecule?
**A.** 9.35 x10E3/uL

**Q.** What about the LYMPHOCYTE [2] of the same molecule?
**A.** 88.67%

**Q.** And the “MEAN CORPUSCULAR HEMOGLOBIN” value [2]?
**A.** 24.13 pg

**Q.** What about the “MEAN CORPUSCULAR HEMOGLOBIN CONCENTRATION” value [2] of the same molecule?
**A.** 38.25 G/DL

**Q.** And the “MEAN CORPUSCULAR VOLUME” value [2]?
**A.** 63.08 fL

**Q.** What about the MONOCYTE [2] of the same molecule?
**A.** 1%

**Q.** What about the NEUTROPHIL [2] of the same molecule?
**A.** 10.33%

**Q.** And the “NUCLEATED RED BLOOD CELLS” value [2]?
**A.** 0.17 /100WBC

**Q.** And the “PLATELET COUNT” value [2]?
**A.** 883.83 x10E3/uL

**Q.** What about the “ALANINE AMINOTRANSFERASE” value [2] of the same molecule?
**A.** 64.5 u/L

**Q.** What about the “ALKALINE PHOSPHATASE” value [2] of the same molecule?
**A.** 425.67 u/L

**Q.** What about the “ASPARTATE AMINOTRANSFERASE” value [2] of the same molecule?
**A.** 88.5 u/L

**Q.** What about the “BLOOD UREA NITROGEN” value [2] of the same molecule?
**A.** 14.17 mg/dL

**Q.** What about the “CARBON DIOXIDE” value [2] of the same molecule?
**A.** 30.5 mmol/L

**Q.** What about the CHLORIDE [2] of the same molecule?
**A.** 100.33 MEQ/L

**Q.** And the CHOLESTEROL [2]?
**A.** 55.33 mg/dL

**Q.** What about the “CREATINE PHOSPHOKINASE” value [2] of the same molecule?
**A.** 287.17 u/L

**Q.** What about the CREATININE [2] of the same molecule?
**A.** 0.2 mg/dL

**Q.** What about the GLUCOSE [2] of the same molecule?
**A.** 162.83 mg/dL

**Q.** And the “LACTATE DEHYDROGENASE” value [2]?
**A.** 111.33 u/L

**Q.** What about the LIPASE [2] of the same molecule?
**A.** 10.5 u/L

**Q.** What about the PHOSPHORUS [2] of the same molecule?
**A.** 10.32 mg/dL

**Q.** And the POTASSIUM [2]?
**A.** 5.13 MEQ/L

**Q.** And the SODIUM [2]?
**A.** 143.93 MEQ/L

**Q.** And the “TOTAL BILIRUBIN” value [2]?
**A.** 0.17 mg/dL

**Q.** And the “TOTAL PROTEIN” value [2]?
**A.** 5.9 G/DL

**Q.** And the “URIC ACID” value [2]?
**A.** 0.77 mg/dL

**Q.** What about the “ABSOLUTE BASOPHIL” value [3] of the same molecule?
**A.** 0 CELLS/uL

**Q.** And the “ABSOLUTE EOSINOPHIL” value [3]?
**A.** 0 CELLS/uL

**Q.** And the “ABSOLUTE LYMPHOCYTE” value [3]?
**A.** 9214.67 CELLS/uL

**Q.** And the “ABSOLUTE MONOCYTE” value [3]?
**A.** 145.33 CELLS/uL

**Q.** And the “ABSOLUTE SEGMENTED NEUTROPHIL” value [3]?
**A.** 940 CELLS/uL

**Q.** And the BASOPHIL [3]?
**A.** 0%

**Q.** And the EOSINOPHIL [3]?
**A.** 0%

**Q.** And the “ERYTHROCYTE COUNT” value [3]?
**A.** 5.43 x10E6/uL

**Q.** And the HEMATOCRIT [3]?
**A.** 33.93%

**Q.** What about the HEMOGLOBIN [3] of the same molecule?
**A.** 13.03 G/DL

**Q.** What about the “LEUKOCYTE COUNT” value [3] of the same molecule?
**A.** 10.3 x10E3/uL

**Q.** And the LYMPHOCYTE [3]?
**A.** 89.33%

**Q.** And the “MEAN CORPUSCULAR HEMOGLOBIN” value [3]?
**A.** 24.03 pg

**Q.** And the “MEAN CORPUSCULAR HEMOGLOBIN CONCENTRATION” value [3]?
**A.** 38.4 G/DL

**Q.** What about the “MEAN CORPUSCULAR VOLUME” value [3] of the same molecule?
**A.** 62.6 fL

**Q.** And the MONOCYTE [3]?
**A.** 1.33%

**Q.** And the NEUTROPHIL [3]?
**A.** 9.33%

**Q.** And the “NUCLEATED RED BLOOD CELLS” value [3]?
**A.** 0 /100WBC

**Q.** What about the “PLATELET COUNT” value [3] of the same molecule?
**A.** 1124 x10E3/uL

**Q.** What about the “ALANINE AMINOTRANSFERASE” value [3] of the same molecule?
**A.** 72 u/L

**Q.** And the “ALKALINE PHOSPHATASE” value [3]?
**A.** 422 u/L

**Q.** And the “ASPARTATE AMINOTRANSFERASE” value [3]?
**A.** 86 u/L

**Q.** What about the “BLOOD UREA NITROGEN” value [3] of the same molecule?
**A.** 10.33 mg/dL

**Q.** What about the “CARBON DIOXIDE” value [3] of the same molecule?
**A.** 34.33 mmol/L

**Q.** And the CHLORIDE [3]?
**A.** 98.67 MEQ/L

**Q.** What about the CHOLESTEROL [3] of the same molecule?
**A.** 71.67 mg/dL

**Q.** And the “CREATINE PHOSPHOKINASE” value [3]?
**A.** 319.33 u/L

**Q.** What about the CREATININE [3] of the same molecule?
**A.** 0.11 mg/dL

**Q.** What about the GLUCOSE [3] of the same molecule?
**A.** 145.33 mg/dL

**Q.** What about the “LACTATE DEHYDROGENASE” value [3] of the same molecule?
**A.** 130.67 u/L

**Q.** What about the LIPASE [3] of the same molecule?
**A.** 11.33 u/L

**Q.** And the PHOSPHORUS [3]?
**A.** 10.8 mg/dL

**Q.** And the POTASSIUM [3]?
**A.** 6.13 MEQ/L

**Q.** What about the SODIUM [3] of the same molecule?
**A.** 144.4 MEQ/L

**Q.** And the “TOTAL BILIRUBIN” value [3]?
**A.** 0.2 mg/dL

**Q.** And the “TOTAL PROTEIN” value [3]?
**A.** 5.6 G/DL
